Experiments:
Assay in all cases: MTT cytotoxicity assay, 72 h
Format in all cases: cell-based, human
A375 = details: A375, skin
Description: (§1) Human breast (MCF-7) and colon (HCT-15, DDL1, SW480 and CaCo-2) carcinoma cell lines along with melanoma (A375) were obtained from the American Type Culture Collection (ATCC, Rockville, Md.). A431 are human cervical carcinoma cells kindly provided by Prof. F. Zunino (Molecular Pharmacology Unit, Experimental Oncology and Molecular Medicine, Istituto Nazionale dei Tumori, Milan, Italy). […] G. Marverti (Dept. of Biomedical Science, University of Modena, Italy). LoVo human colon-carcinoma cell line and its multidrug-resistant sublime (LoVo MDR) were kindly provided by Prof F. Maj one (Department of Biology of Padova University, Italy). […] Cell lines were maintained in the logarithmic phase at 37° C. in a 5% carbon dioxide atmosphere using the following culture media containing 10% fetal calf serum (Euroclone, Milan, Italy), antibiotics (50 units mL^−1 penicillin and 50 μg mL^−1 streptomycin), and 2 mM L-glutamine in: i) RPMI-1640 medium (Euroclone) for MCF-7, HCT-15, A431, DLD 1, 2008, and C13* cells; ii) F-12 HAM'S (Sigma Chemical Co.) for LoVo, LoVo MDR, and LoVo-OXP cells; iii) DMEM for A375 and SW 480 cells; and iv) MEM for CaCo-2 cells.
(§2) The growth inhibitory effect towards tumor cell lines was evaluated by means of the MTT (3-(4,5-dimethylthiazol-2-yl)-2,5-diphenyltetrazolium bromide) assay (Alley, M. C., et al., Cancer Res. 1988, 48, 589-601).
(§3) Briefly, depending upon the growth characteristics of the cell line, 3-8×10^3 cells well^−1, were seeded in 96-well microplates in growth medium (100 μL) and then incubated at 37° C. in a 5% carbon dioxide atmosphere. After 24 h, the medium was removed and replaced with a fresh one containing the compound to be studied, at the appropriate concentration, dissolved in 0.9% sodium chloride solution just before use. Triplicate cultures were established for each treatment. After 72 h, each well was treated with […] of a 5 mg mL^−1 MTT saline solution and, after 5 h of incubation, 100 μL of a sodium dodecylsulfate (SDS) solution in 0.01 M HCl were added. After an overnight incubation, the inhibition of cell growth induced by the tested complexes was determined by measuring the absorbance of each well at 570 nm using a BioRad 680 microplate reader. Mean absorbance for each drug dose was expressed as percentage of the control and plotted vs. drug concentration. Dose-response curves were fitted and IC50 values were calculated with four parameter logistic model (4PL).
(§4) Compound 1 was prepared for the first time almost twenty years ago however, until now, it had been tested (both in vitro and in vivo) only in a limited number of tumor cell lines (Hoeschele, J. D., et al., J. Med. Chem. 1994, 37, 2630-2636 and Shamsuddin, S., et al., J. Inorg. Biochem. 1996, 61, 291-301). The Pt(II) and Pt(IV) complexes containing isomeric forms of diaminocyclohexane, [PtCl2(cis-1,4-DACHA](1), [PtCl2(1R,2R-DACH)] (2), [Pt(OXA)(cis-1,4-DACH)] (3), cis,trans,cis-[Pt^IVCl2(OH)2(cis-1,4-DACH)] (4), cis,trans,cis-[Pt^IVCl2(DCA)2(cis-1,4-DACH)] (5), [Pt(CBDCA)(cis-1,4-DACH)] (6), cis,trans,cis-[Pt^IV(OXA)(OH)2(cis-1,4-DACH)] (7), and cis,trans,cis-[Pt^IV(OXA)(DCA)2(cis-1,4-DACH)] (8) were evaluated for their cytotoxic activity towards a panel of human tumor cell lines including cervical (A431), breast (MCF-7), cancers along with a melanoma (A375) and 4 different colon cancer cell lines corresponding to different stages of the disease progression (HCT-15, SW480, CaCo-2, DLD-1). The cytotoxicity was evaluated by means of the MTT test for 72 h treatment with increasing concentrations of the tested compounds.

A431 = details: A431, cervix
Description: as §1, §2, §3, §4

DLD-1 = details: DLD-1, colon
Description: as §1, §2, §3, §4

HCT-15 = details: HCT-15, colon
Description: as §1, §2, §3, §4

MCF-7 = details: MCF-7, breast
Description: as §1, §2, §3, §4

SW480 = details: SW480, colon
Description: as §1, §2, §3, §4

For O=C1[O][Pt-2]2([NH2+]C3CCCC[C@H]3[NH2+]2)[O]C1=O (stereo partly drawn) [oxaliplatin, [(1R,2R)-cyclohexane-1,2diamine](ethanedioato)platinum(II), reference compound], the IC50 (A375) was 2.37 ± 1.31 µM, the IC50 (A431) was 3.69 ± 1.03 µM and the IC50 (DLD-1) was 5.81 ± 1.93 µM. It also gave an IC50 (HCT-15) of 1.25 ± 1.05 µM, an IC50 (MCF-7) of 3.36 ± 1.69 µM and an IC50 (SW480) of 4.2 ± 0.75 µM.
